Drawing on US7186732B2, “Non-imidazole aryloxyalkylamines” (Ortho-McNeil Pharmaceutical, Inc., priority 2000, dated 2007), this text covers Ki for one compound.

The target of the assay is T1, human histamine H3 receptor (Homo sapiens, UniProt Q9Y5N1).
T1 construct: expressed in transfected cells; membranes prepared from cell pellets
The assay can be described thus: [3H]-N-methylhistamine binding to membranes of histamine H3 receptor-expressing SK-N-MC cells. Conditions: 0.8 nM [3H]-N-methylhistamine, 45 min at 25° C., SK-N-MC cell membranes; Ki=(IC50)/(1+([L]/(Kd)); read-out: Ki. Here is the method: Thus in the present invention receptor binding was determined using the human histamine H3 receptor (See Lovenberg et al Mol. Pharmacol. 1999, 1107). Screening using the human receptor is particularly important for the identification of new therapies for the treatment of human disease. Conventional binding assays for example are determined using rat synaptosomes (Garbarg et al J. Pharmacol. Exp. Ther. 1992, 263, 304), rat cortical membranes (West et al Mol. Pharmacol. 1990, 610), and guinea pig brain (Korte et al Biochem. Biophys. Res. Commun. 1990, 978).
Transfection of Cells with Human Histamine Receptor
A 10 cm tissue culture dish with a confluent monolayer of SK-N-MC cells was split two days prior to transfection. Using sterile technique the media was removed and the cells were detached from the dish by the addition of trypsin. One fifth of the cells were then placed onto a new 10 cm dish. Cells were grown in a 37° C. incubator with 5% CO2 in Minimal Essential Media Eagle with 10% Fetal Bovine Serum. After two days cells were approximately 80% confluent. These were removed from the dish with trypsin and pelleted in a clinical centrifuge. The pellet was then re-suspended in 400 μL complete media and transferred to an electroporation cuvette with a 0.4 cm gap between the electrodes (Bio-Rad #165–2088). One microgram of supercoiled H3 receptor cDNA was added to the cells and mixed. The voltage for the electroporation was set at 0.25 kV, the capacitance was set at 960 μF. After electroporation the cells were diluted into 10 mL complete media and plated onto four 10 cm dishes. Because of the variability in the efficiency of electroporation, four different concentrations of cells were plated. The ratios used were; 1:20, 1:10, 1:5, with the remainder of the cells being added to the fourth dish. The cells were allowed to recover for 24 hours before adding the selection media (complete media with 600 μg/mL G418). After 10 days dishes were analyzed for surviving colonies of cells. Dishes with well isolated colonies were used. Cells from individual colonies were isolated and tested. SK-N-MC cells were used because they give efficient coupling for inhibition of adenylate cyclase. The clones that gave the most robust inhibition of adenylate cyclase in response to histamine were used for further study.
[^3H]-N-methylhistamine Binding
Cell pellets from histamine H3 receptor-expressing SK-N-MC cells were homogenized in 20 mM TrisHCI/0.5 mM EDTA. Supernatants from a 800 g spin were collected, recentrifuged at 30,000 g for 30 minutes. Pellets were re-homogenized in 50 mM Tris/5 mM EDTA (pH 7.4). Membranes were incubated with 0.8 nM [^3H]-N-methylhistamine plus/minus test compounds for 45 min at 25° C. and harvested by rapid filtration over GF/C glass fiber filters (pretreated with 0.3% polyethylenimine) followed by four washes with ice cold buffer. Filters were dried, added to 4 mL scintillation cocktail and then counted on a liquid scintillation counter. Non-specific binding was defined with 10 μM histamine. The pKi values were calculated based on a Kd of 800 pM and a ligand concentration ([L]) of 800 pM according to the formula: Ki=(IC50)/(1+([L]/(Kd))

T1 sequence (Q9Y5N1 whole entry): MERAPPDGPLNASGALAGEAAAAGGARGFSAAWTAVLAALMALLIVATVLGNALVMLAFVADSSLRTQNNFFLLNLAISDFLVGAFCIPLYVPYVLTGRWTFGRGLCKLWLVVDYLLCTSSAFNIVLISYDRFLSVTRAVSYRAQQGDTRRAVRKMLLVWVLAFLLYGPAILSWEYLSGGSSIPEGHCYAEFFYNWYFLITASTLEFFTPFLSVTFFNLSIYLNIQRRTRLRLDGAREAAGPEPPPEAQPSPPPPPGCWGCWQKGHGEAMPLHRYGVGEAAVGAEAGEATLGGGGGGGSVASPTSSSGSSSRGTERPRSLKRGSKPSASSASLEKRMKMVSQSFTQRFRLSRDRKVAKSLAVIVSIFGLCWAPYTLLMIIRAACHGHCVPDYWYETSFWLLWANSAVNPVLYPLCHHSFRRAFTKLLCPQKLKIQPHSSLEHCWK

The term Ki denotes a measure of affinity in units of concentration, obtained from inhibition or displacement. As to `CN(C)CCOc1ccc(OCCCN2CCCCC2)cc1` [Example 29, Dimethyl-{2-[4-(3-piperidin-1-yl-propoxy)-phenoxy]-ethyl}-amine], the inhibitory constant (Ki) came to 2.3 nM.
